Assay results reported in the supplement of paper PMC5579334.

How the values were obtained:
HS-PSS [1] = experiment: relative IC50 (inflection point of fitted dose-response curve, CellTox-Green cytotoxicity, 72 h; top asymptote may be below 50%); higher = less potent
Method in brief: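 MPNST cell lines and primary human Schwann cells were grown for 72 h at 37 °C in 384-well plates containing five 10-fold compound dilutions. CellTox-Green, added before seeding at a final 1:1000 dilution, gave fluorescence from DNA released by disrupted cells, and signals were scaled to vehicle and positive-control wells. Curves were fitted with a four-parameter logistic model. Drug sensitivity score and relative IC50 come from these fits, with IC50 censored at the top concentration.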

HS-Sch-2 = experiment: relative IC50 (inflection point of fitted dose-response curve, CellTiter-Glo viability, 72 h; top asymptote may be below 50% inhibition); higher = less potent
Method in brief: (§1)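 Viability of MPNST cell lines and primary human Schwann cells was read as CellTiter-Glo ATP luminescence after 72 h at 37 °C, 5% CO2, in 384-well plates seeded with 750–1000 cells per well. Each compound had been preprinted at five concentrations in 10-fold steps. Signals were scaled between vehicle and positive-control wells, duplicates averaged where present, and fitted with four-parameter logistic curves. Drug sensitivity score and relative IC50 (censored at the top concentration) come from those fits, and percent inhibition is taken at the top concentration.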

YST-1 = experiment: as above
Method in brief: as §1

HS-PSS [2] = experiment: as above
Method in brief: as §1

SMILES | relative IC50 (HS-PSS [1]) | relative IC50 (HS-Sch-2) | relative IC50 (YST-1) | relative IC50 (HS-PSS [2])
CNC(=O)c1ccc(C)c(-n2c(C)cc(OCc3ccc(F)cc3F)c(Br)c2=O)c1 | > 1 µM | > 1000 nM | 44.6 nM | > 1000 nM
CNc1ncc2cc(-c3cc(NC(=O)NCCC(C)(C)C)c(F)cc3C)c(C)nc2n1 | 3.59 µM | 235 nM | 561 nM | 3820 nM
C[C@@H](Oc1ccc2[nH]nc(/C=C/c3cnn(CCO)c3)c2c1)c1c(Cl)cncc1Cl | 0.245 µM | 118 nM | 114 nM | 187 nM
Cc1nc(Nc2n[nH]c3c2CN(C(=O)N[C@H](CN(C)C)c2ccccc2)C3(C)C)c2sccc2n1 | 0.127 µM | 413 nM | 67 nM | 22.5 nM
Cn1cc(C2=Nc3cc(NC(=O)C(N)C4CCCCC4)cc4c3C2=CNNC4=O)cn1 (configuration not stated) | > 10 µM | 108 nM | 163 nM | 77.1 nM
O=c1cc(N2CCOCC2)oc2c(-c3ccccc3)cccc12 | 18.3 µM | 13700 nM | 7660 nM | 13400 nM
Cn1cc(C[C@@H](N)C(=O)O)c2ccccc21 [1-methyl-D-tryptophan] | > 5 µM | > 5000 nM | > 5000 nM | > 5000 nM
CC(C)[C@H](C(=O)Nc1ccc(C(=O)NO)cc1)c1ccccc1 [AR-42] | 1.92 µM | 1150 nM | 270 nM | 1060 nM
COc1cc(N2CCC(N3CCN(C)CC3)CC2)ccc1Nc1ncnc(Nc2ccccc2S(=O)(=O)C(C)C)n1 [ASP3026] | > 10 µM | > 10000 nM | > 10000 nM | > 10000 nM
COc1cc(N2CCN(C)CC2)ccc1Nc1nccc(-c2cn(C)c3cnccc23)n1 [AZ191] | 2.46 µM | 3350 nM | 3400 nM | 2610 nM
N[C@@H]1CCCN(c2c(/C=C3\SC(=O)NC3=O)cccc2-c2ccccc2)C1 [AZD1208] | > 10 µM | > 10000 nM | 204 nM | > 10000 nM
N#Cc1ccc2[nH]c(O)c(-c3ccc(CN4CCOCC4)cn3)c2c1 [AZD-1080] | > 10 µM | 3630 nM | > 10000 nM | 2380 nM
C[C@@H](Nc1cc(F)cc(F)c1)c1cc(C(=O)N(C)C)cc2c(=O)cc(N3CCOCC3)oc12 [AZD-8186] | > 1 µM | > 1000 nM | 357 nM | > 1000 nM
Cc1cc(C(=O)NOCCO)c(Nc2ccc(I)cc2F)n(C)c1=O [AZD-8330] | > 10 µM | 174 nM | > 10000 nM | 322 nM
CN(C)Cc1c(C(=O)NCCOc2ccc(C(=O)NO)cc2)oc2ccccc12 [Abexinostat] | 1.43 µM | 197 nM | 72.3 nM | 333 nM
COc1cccc2c1C(=O)c1c(O)c3c(c(O)c1C2=O)C[C@@](O)(/C(CO)=N/NC(=O)CCCCCN1C(=O)C=CC1=O)C[C@@H]3O[C@H]1C[C@H](N)[C@H](O)[C@H](C)O1 [Aldoxorubicin] | 0.181 µM | 105 nM | 51.5 nM | 158 nM
S=C(NCc1ccc2c(c1)OCO2)N1CCN(c2ncnc3c2oc2ccccc23)CC1 [Amuvatinib] | > 10 µM | 2070 nM | 3540 nM | 1010 nM
Cc1c(CN2CCN(C(=O)[C@H](C)O)CC2)sc2c(N3CCOCC3)nc(-c3cnc(N)nc3)nc12 [Apitolisib] | > 10 µM | 732 nM | 167 nM | 715 nM
O=C(Nc1cccc(Nc2ncc(Br)c(NCCc3cnc[nH]3)n2)c1)N1CCCC1 [BX-912] | > 10 µM | 2750 nM | 867 nM | 1930 nM
CCS(=O)(=O)N1CC(CC#N)(n2cc(-c3ncnc4[nH]ccc34)cn2)C1 [Baricitinib] | > 2.5 µM | > 2500 nM | > 2500 nM | > 2500 nM
CN(C)c1cc2c(cc1Sc1nc3c(N)nccc3n1CCNCC(C)(C)C)OCO2 [CUDC-305] | 0.384 µM | 219 nM | 516 nM | 510 nM
COc1ccc(-c2nc(N3CCOCC3)c3sc(CN(C)c4ncc(C(=O)NO)cn4)cc3n2)cn1 [CUDC-907] | 0.0667 µM | 24.3 nM | 3.12 nM | 20.7 nM
Cc1nc(N)sc1-c1ccnc(Nc2ccc(N3CCOCC3)cc2)n1 [CYC-116] | > 10 µM | 1580 nM | 510 nM | 1390 nM
CC[C@@]1(O)C(=O)OCc2c1cc1n(c2=O)Cc2cc3ccccc3nc2-1 [Camptothecin] | 0.358 µM | 63.4 nM | 40.1 nM | 199 nM

SMILES | relative IC50 (HS-PSS [1]) | relative IC50 (HS-Sch-2) | relative IC50 (YST-1) | relative IC50 (HS-PSS [2])
CCS(=O)(=O)N1CCN(c2ccc(Nc3ncc(C(N)=O)c(NC4CC4)n3)cc2)CC1 [Cerdulatinib] | > 10 µM | 1880 nM | > 10000 nM | 1270 nM
CCN(CC)CCCC(C)Nc1ccnc2cc(Cl)ccc12 (configuration not stated) [Chloroquine] | 8.35 µM | 3750 nM | 14700 nM | 2730 nM
CC(C)[C@H]1C(=O)N[C@@H](CCCNC(=N)N)C(=O)NCC(=O)N[C@@H](CC(=O)O)C(=O)N[C@H](Cc2ccccc2)C(=O)N1C [Cilengitide] | > 10 µM | 3250 nM | > 10000 nM | > 10000 nM
N.N.[Cl][Pt][Cl] [Cisplatin] | 2.27 µM | 1170 nM | 5180 nM | 4700 nM
COc1c(OCCCN2CCOCC2)ccc2c1N=C(NC(=O)c1cnc(N)nc1)N1CCN=C21 [Copanlisib] | > 1 µM | 113 nM | 22.1 nM | 405 nM
CC(=O)N(O)CCCCCNC(=O)CCC(=O)N(O)CCCCCNC(=O)CCC(=O)N(O)CCCCCN [Deferoxamine] | 3.24 µM | 1070 nM | 1970 nM | 1480 nM
CCN(CC)C(=S)SSC(=S)N(CC)CC [Disulfiram] | 6.65 µM | 600 nM | 303 nM | 291 nM
Cc1cc(Nc2cc(N3CCN(C)CC3)nc(/C=C/c3ccccc3)n2)n[nH]1 [ENMD-2076] | 2.29 µM | 763 nM | 361 nM | 1060 nM
Cc1cc(C)c(CNC(=O)c2cc(-c3ccc(CN4CCOCC4)cc3)cc3c2cnn3C2CCCC2)c(=O)[nH]1 [EPZ-5687] | > 10 µM | > 10000 nM | > 10000 nM | > 10000 nM
CCn1c(=O)c(-c2ccc(Cl)cc2Cl)cc2cnc(Nc3ccc(N4CCNCC4)c(F)c3)nc21 [FRAX486] | > 5 µM | 133 nM | > 5000 nM | 1750 nM
Cc1cnc(Nc2ccc(OCCN3CCCC3)cc2)nc1Nc1cccc(S(=O)(=O)NC(C)(C)C)c1 [Fedratinib] | 3.37 µM | 1180 nM | 1520 nM | 1440 nM
COc1cc(Nc2ncc(F)c(Nc3ccc4c(n3)N(COP(=O)(O)O)C(=O)C(C)(C)O4)n2)cc(OC)c1OC [Fostamatinib] | > 2.5 µM | 416 nM | 685 nM | 514 nM
O=C(NOCCO)c1ccc2cncn2c1Nc1ccc(I)cc1F [GDC-0623] | > 2.5 µM | 368 nM | > 2500 nM | 300 nM
Cn1nccc1Nc1nccc(-c2ccn([C@H](CO)c3ccc(Cl)c(F)c3)c(=O)c2)n1 [GDC-0994] | > 10 µM | 2760 nM | 4280 nM | > 10000 nM
CCCOc1ccn2c(C(C)=O)cc(-c3ccccc3S(C)(=O)=O)c2c1 [GSK2801] | > 10 µM | > 10000 nM | > 10000 nM | > 10000 nM
CN(C)C1CCN(C(=O)c2ccc(NC(=O)Nc3ccc(-c4nc(N5CCOCC5)nc(N5CCOCC5)n4)cc3)cc2)CC1 [Gedatolisib] | > 1 µM | 47.2 nM | 16.4 nM | 9.08 nM
CCN(CC)Cc1ccc2cc(COC(=O)Nc3ccc(C(=O)NO)cc3)ccc2c1 [Givinostat] | 0.253 µM | 166 nM | 63.7 nM | 351 nM
O=C(Nc1nc2ccccc2n1CCN1CCOCC1)c1cccc([N+](=O)[O-])c1 [IRAK1/4 inhibitor] | > 25 µM | > 25000 nM | > 25000 nM | > 25000 nM
COc1cc(C(=O)O)ccc1NC(=O)[C@@H]1N[C@@H](CC(C)(C)C)[C@](C#N)(c2ccc(Cl)cc2F)[C@H]1c1cccc(Cl)c1F [Idasanutlin] | > 10 µM | > 10000 nM | 62 nM | 178 nM
Cc1sc2c(c1C)C(c1ccc(Cl)cc1)=N[C@@H](CC(=O)OC(C)(C)C)c1nnc(C)n1-2 [JQ1] | > 10 µM | 331 nM | 280 nM | 379 nM
NC(=O)N1CCC(CC(=O)N2CCC([C@H]3c4ncc(Br)cc4CCc4cc(Cl)cc(Br)c43)CC2)CC1 [Lonafarnib] | > 10 µM | 1660 nM | 1370 nM | 2150 nM
Cc1c(F)cc(C(=O)NC2CC2)cc1-c1ccc(C(=O)NCC(C)(C)C)cn1 [Losmapimod] | > 10 µM | > 10000 nM | 24.9 nM | > 10000 nM
CC[C@H](C)C(=O)O[C@H]1C[C@@H](C)C=C2C=C[C@H](C)[C@H](CC[C@@H]3C[C@@H](O)CC(=O)O3)[C@H]21 [Lovastatin] | > 10 µM | > 10000 nM | > 10000 nM | > 10000 nM
CCNC(=O)c1noc(-c2cc(C(C)C)c(O)cc2O)c1-c1ccc(CN2CCOCC2)cc1 [Luminespib] | 0.0518 µM | 11 nM | 10.3 nM | 39.3 nM
